In article PMC12019880 (Frontiers in Pharmacology, 2025):
Values joined by “and” are separate entries in the source; they are usually repeats but may differ in a detail not shown here. Equal values may be shown once.

Key:
hNav1.7 = hNav1.7 (Homo sapiens, UniProt Q15858); experiment: automated patch-clamp, hNav1.7 stably expressed in CHO cells; assay type: cell-based
Description: (§1) CHO cells stably expressing hNav1.7 were cultured in Dulbecco’s Modified Eagle’s Medium (DMEM) supplemented with 10% foetal calf serum, 1 mM pyruvic acid, 4 mM glutamine, 10 U/mL penicillin and 10 μg/mL streptomycin (Gibco, Grand Island, NY), and incubated at 37°C in a 5% CO2 atmosphere. For electrophysiological recordings, cells were detached with trypsin and floating single cells were diluted (∼300,000 cells/mL) in medium containing (in mM): 4 KCl, 140 NaCl, five glucose, 10 2-[4-(2-hydroxyethyl)piperazin-1-yl]ethanesulfonic acid (HEPES, pH 7.4, osmolarity 290 mOsm). Similar culturing conditions were used for HEK-293 cell lines expressing hNav1.1, hNav1.2, hNav1.3, hNav1.5 and hNav1.6 channels. The plasmid pcDNA3.1+/C-(K)-DYK (Genscript, Piscataway, New Jersey, USA) was used for transient expression of mNav1.7 in HEK-293T cells using the Maxcyte electroporation system.
(§2) Chips with single-hole and high-resistance 5.14 ± 0.02 MΩ (n = 384) were used for HEK-293 cell recordings. Only cells with seal resistance above 500 MΩ and Rs values <15 MΩ were kept for analyses. All Rs values were compensated at 90%. Voltage pulses and whole-cell recordings were achieved using the PatchControl384 v1.5.3 software (Nanion Technologies, Munich, Germany) and the Biomek v1.0 interface (Beckman Coulter, Villepinte, France). Prior to recordings, dissociated cells were shaken at 60 rpm in a cell hotel reservoir at 10°C. After cell catching, sealing, whole-cell formation, liquid application, recording, and data acquisition were all performed sequentially and automatically. The intracellular solution contained (in mM): 10 KCl, 110 kF, 10 NaCl, 1 MgCl2, 1 CaCl2, 10 Ethylene Glycol Tetraacetic Acid (EGTA) and 10 HEPES (pH 7.2, osmolarity 280 mOsm), and the extracellular solution (in mM): 140 NaCl, 4 KCl, 2 CaCl2, 1 MgCl2, five glucose, and 10 HEPES (pH 7.4, osmolarity 298 mOsm). Whole-cell experiments were done at −100 mV holding potential, while currents triggered at 0 mV test potential were sampled at 10 kHz (sweeps every 8 s). […]

mNav1.7 = molecular target: T1, mNav1.7 (Mus musculus, UniProt Q62205); experiment: automated patch-clamp, mNav1.7 electroporated in HEK293 cells; assay type: cell-based; conditions: mNav1.7 (Figure 4b)
T1 construct: DYK (FLAG) tag of vector pcDNA3.1+/C-(K)-DYK (C); host or cells: HEK-293T cells, Maxcyte electroporation
Description: as §1
(§3) Chips with single-hole and high-resistance 5.14 ± 0.02 MΩ (n = 384) were used for HEK-293 cell recordings. Only cells with seal resistance above 500 MΩ and Rs values <15 MΩ were kept for analyses. All Rs values were compensated at 90%. Voltage pulses and whole-cell recordings were achieved using the PatchControl384 v1.5.3 software (Nanion Technologies, Munich, Germany) and the Biomek v1.0 interface (Beckman Coulter, Villepinte, France). […]

hNav1.4 = experiment: automated patch-clamp, hNav1.4; assay type: cell-based, human
Source text: as §2, with “s). Compounds were prepared at various concentrations in the extracellular solution supplemented with 0.3% BSA and distributed in 384-well plates according to a pre-designed template.” for “s).”

hNav1.5 = experiment: automated patch-clamp, hNav1.5; assay type: cell-based, human; conditions: up to 3,300 nM (Figure 4c)
Description: as §1, §3

[1] = system: mice (adult female Swiss); experiment: automated von Frey test (tactile sensitivity); assay type: in vivo, mouse
[2] = system: mice (adult female Swiss); experiment: hot-plate test (heat sensitivity); assay type: in vivo, mouse; conditions: 55.0°C
Source text: (§4) The study was experimentally designed to have group sizes of at least six animals per group, with intravenous injection as an exclusion criterion. In addition, randomization and blinding (one of the two experimenters being blind to treatment group) were undertaken in all animal experiments. […] Prior to testing, each mouse underwent a 20-min acclimation to the experimental laboratory environment (in its home cage).
Each mouse, injected or not with PBS +0.1% BSA or toxin solution in the right hind limb, was put on a hot-plate (HCP No. 35150, Ugo Basile, Italy) set at the temperature of 55.0°C ± 0.2°C 15–30 min after limb injection. The measured parameter as the first pain-related manifestation was the latency (in seconds) for the animal to shake the right hind limb ([Deuis et al., 2017]). This latency, considered as a painful response to heat, was recorded simultaneously by two observers (one being blind to treatment group) with a timer integrated into the set-up. A maximal cut-off time of 30 s was used to prevent tissue damage.

[3] = system: mice (adult female Swiss); conditions: mouse, in vivo
Source text: as §4

[4] = system: TTX-S Na^+ currents from adult mouse DRG neurons
[5] = system: TTX-R Na^+ currents from adult mouse DRG neurons
C57Bl6 mice = conditions: mouse, in vivo, ip
[6] = system: Na^+ current of larger diameter DRG neurons; assay type: cell-based, mouse
Nav1.7 = conditions: cited from earlier work
N-type calcium channels = conditions: cited from earlier work
ryanodine receptor = conditions: ref Ronjat et al., 2016; cited from earlier work

Sequence of hNav1.7 (Q15858 whole entry): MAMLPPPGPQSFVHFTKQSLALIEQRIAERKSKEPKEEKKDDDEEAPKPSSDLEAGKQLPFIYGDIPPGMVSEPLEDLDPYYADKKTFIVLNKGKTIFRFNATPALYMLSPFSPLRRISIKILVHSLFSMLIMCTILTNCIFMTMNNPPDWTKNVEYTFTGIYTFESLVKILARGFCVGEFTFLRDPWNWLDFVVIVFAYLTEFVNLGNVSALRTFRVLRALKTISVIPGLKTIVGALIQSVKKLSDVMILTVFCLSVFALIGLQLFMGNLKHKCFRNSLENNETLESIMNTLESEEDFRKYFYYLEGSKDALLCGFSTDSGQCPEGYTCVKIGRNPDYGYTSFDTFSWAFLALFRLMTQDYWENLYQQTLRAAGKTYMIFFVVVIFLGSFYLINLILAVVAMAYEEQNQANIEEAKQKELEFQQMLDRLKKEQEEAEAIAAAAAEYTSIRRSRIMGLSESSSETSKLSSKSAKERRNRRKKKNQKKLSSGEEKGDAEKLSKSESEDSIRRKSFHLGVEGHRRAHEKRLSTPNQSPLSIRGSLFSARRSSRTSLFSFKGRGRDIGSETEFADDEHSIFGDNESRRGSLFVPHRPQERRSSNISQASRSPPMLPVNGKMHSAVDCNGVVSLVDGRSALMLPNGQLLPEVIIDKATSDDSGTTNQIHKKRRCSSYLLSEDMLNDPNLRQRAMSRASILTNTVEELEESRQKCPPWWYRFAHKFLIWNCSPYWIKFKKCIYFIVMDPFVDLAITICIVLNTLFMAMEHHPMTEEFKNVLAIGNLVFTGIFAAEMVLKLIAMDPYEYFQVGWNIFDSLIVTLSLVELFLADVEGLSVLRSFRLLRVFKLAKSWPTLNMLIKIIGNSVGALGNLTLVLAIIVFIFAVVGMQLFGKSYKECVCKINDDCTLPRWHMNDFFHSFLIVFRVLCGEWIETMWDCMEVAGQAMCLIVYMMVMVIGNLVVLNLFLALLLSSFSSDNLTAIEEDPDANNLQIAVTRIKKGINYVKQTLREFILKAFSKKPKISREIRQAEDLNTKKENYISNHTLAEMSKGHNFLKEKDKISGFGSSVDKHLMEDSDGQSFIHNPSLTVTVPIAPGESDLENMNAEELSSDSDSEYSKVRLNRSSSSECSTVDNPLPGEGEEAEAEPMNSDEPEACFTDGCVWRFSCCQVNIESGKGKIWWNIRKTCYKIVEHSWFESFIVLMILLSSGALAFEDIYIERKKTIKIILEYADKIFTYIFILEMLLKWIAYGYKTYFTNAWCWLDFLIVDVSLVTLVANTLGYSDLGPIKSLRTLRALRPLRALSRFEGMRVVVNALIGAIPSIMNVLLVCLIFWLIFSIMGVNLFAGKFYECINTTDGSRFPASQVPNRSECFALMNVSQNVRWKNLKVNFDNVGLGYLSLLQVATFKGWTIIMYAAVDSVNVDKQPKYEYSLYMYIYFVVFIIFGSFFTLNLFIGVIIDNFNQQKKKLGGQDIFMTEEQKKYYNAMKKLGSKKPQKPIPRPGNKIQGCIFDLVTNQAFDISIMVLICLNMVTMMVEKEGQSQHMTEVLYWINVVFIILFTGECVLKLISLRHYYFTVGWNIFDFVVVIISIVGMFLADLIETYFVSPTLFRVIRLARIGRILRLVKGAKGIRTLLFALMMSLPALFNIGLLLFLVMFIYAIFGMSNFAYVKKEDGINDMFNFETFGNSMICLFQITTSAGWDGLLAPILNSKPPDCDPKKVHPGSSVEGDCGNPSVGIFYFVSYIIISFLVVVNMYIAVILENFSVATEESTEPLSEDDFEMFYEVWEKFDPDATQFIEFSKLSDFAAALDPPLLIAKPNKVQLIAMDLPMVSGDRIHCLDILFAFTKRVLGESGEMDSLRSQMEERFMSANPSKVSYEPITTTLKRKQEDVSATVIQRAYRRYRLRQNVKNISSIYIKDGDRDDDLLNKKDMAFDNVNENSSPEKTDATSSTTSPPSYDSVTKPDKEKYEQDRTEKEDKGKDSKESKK
T1 sequence (Q62205 whole entry): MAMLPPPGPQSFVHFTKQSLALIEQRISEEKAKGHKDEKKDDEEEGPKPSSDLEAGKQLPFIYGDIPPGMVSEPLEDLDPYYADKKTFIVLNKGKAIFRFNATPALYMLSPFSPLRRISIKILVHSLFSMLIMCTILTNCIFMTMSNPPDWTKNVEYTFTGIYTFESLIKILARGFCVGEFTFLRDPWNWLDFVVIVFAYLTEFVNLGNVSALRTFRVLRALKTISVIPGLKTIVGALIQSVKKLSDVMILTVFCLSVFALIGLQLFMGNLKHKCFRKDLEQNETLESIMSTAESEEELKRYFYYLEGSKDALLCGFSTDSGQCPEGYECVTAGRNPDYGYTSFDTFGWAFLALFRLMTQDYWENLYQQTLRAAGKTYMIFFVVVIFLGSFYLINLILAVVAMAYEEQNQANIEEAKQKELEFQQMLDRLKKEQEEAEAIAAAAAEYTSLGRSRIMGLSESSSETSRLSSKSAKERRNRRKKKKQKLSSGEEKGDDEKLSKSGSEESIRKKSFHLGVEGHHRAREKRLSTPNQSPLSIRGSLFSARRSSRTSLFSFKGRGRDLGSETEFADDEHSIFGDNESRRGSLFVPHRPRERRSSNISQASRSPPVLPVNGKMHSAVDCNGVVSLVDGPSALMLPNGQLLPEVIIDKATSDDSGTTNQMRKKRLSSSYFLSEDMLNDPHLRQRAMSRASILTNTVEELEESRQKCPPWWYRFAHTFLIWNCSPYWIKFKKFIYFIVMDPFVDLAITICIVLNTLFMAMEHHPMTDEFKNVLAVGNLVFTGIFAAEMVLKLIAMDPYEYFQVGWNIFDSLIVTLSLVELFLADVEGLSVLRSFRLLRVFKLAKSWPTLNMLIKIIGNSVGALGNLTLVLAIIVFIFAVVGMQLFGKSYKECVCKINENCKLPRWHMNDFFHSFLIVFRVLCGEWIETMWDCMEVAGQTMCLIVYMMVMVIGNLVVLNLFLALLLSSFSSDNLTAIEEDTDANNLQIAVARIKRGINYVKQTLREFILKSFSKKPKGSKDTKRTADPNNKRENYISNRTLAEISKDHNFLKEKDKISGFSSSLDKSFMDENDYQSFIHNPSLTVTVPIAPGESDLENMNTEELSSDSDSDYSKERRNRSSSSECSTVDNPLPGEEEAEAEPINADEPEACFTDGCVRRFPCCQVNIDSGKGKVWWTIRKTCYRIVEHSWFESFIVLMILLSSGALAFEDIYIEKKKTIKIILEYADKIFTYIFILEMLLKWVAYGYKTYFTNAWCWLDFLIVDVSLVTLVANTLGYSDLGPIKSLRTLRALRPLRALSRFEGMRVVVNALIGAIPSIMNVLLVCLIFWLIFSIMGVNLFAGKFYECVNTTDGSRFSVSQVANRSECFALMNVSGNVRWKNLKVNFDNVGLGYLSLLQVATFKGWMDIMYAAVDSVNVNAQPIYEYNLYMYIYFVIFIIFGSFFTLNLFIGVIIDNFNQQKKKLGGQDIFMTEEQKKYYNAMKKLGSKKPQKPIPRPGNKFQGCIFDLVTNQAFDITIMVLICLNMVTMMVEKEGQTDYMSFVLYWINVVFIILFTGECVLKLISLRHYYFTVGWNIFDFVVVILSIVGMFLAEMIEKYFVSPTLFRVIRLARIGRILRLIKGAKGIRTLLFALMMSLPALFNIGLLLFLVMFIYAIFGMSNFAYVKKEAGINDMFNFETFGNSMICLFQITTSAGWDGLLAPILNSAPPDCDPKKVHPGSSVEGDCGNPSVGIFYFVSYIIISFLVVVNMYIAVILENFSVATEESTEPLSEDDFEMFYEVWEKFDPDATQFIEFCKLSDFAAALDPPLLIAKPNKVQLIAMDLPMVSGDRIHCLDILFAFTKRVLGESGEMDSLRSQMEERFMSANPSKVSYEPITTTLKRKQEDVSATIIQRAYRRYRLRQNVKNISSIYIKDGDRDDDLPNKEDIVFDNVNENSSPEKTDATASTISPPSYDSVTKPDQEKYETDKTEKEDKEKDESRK

Compound: CC[C@H](C)[C@H](NC(=O)[C@H](CCC(N)=O)NC(=O)[C@H](Cc1ccc(O)cc1)NC(=O)[C@H](CCCCN)NC(=O)[C@@H]1CSSC[C@@H]2NC(=O)[C@H](CCC(N)=O)NC(=O)[C@H](CC(=O)O)NC(=O)[C@H](CC(N)=O)NC(=O)[C@H](CO)NC(=O)[C@@H]3CCCN3C(=O)[C@H](CC(N)=O)NC(=O)[C@@H]3CSSC[C@H](NC(=O)[C@H](C(C)C)NC(=O)[C@H](CC(C)C)NC(=O)[C@H](CCCCN)NC(=O)[C@H](CO)NC(=O)[C@H](CO)NC(=O)[C@H](CCCCN)NC(=O)[C@H](CSSC[C@H](NC(=O)[C@@H](N)CCC(=O)O)C(=O)N[C@@H](CC(C)C)C(=O)N[C@@H](CCC(=O)O)C(=O)N[C@@H]([C@@H](C)CC)C(=O)N[C@@H](Cc4ccccc4)C(=O)N[C@@H](CCCCN)C(=O)N[C@@H](C)C(=O)N3)NC2=O)C(=O)N[C@@H](CO)C(=O)N[C@@H](CCCNC(=N)N)C(=O)N[C@@H](CCCCN)C(=O)N[C@@H]([C@@H](C)O)C(=O)N[C@@H](CCCNC(=N)N)C(=O)N[C@@H](Cc2c[nH]c3ccccc23)C(=O)N1)C(=O)NCC(=O)O [sHwTx-IV GCOOH]
- fold less potent than HwTx-IV on hNav1.7 (hNav1.7): 16 fold
- nH (Hill number) (hNav1.7; hNav1.7 (Figure 4c)): −0.98
- nH (Hill number) (hNav1.7; hNav1.7 in CHO cells (Figure 4a)): −0.97
- nH (Hill number) (mNav1.7): −0.90
- inhibition of hNav1.4 (hNav1.4): not affected
- inhibition of hNav1.5 (hNav1.5): no inhibition up to 3,300 nM
- force intensity for hind limb withdrawal ([1]; 98 nmol/kg intraplantar, 15–30 min, versus vehicle, P < 0.010): significantly (P < 0.010) increased
- dose efficiency difference between both peptides, von Frey ([1]; 14–98 nmol/kg intraplantar): no dose efficiency difference could be observed between both peptides
- reaction time to heat (latency to shake hind limb) ([2]; 10–98 nmol/kg intraplantar, 15–30 min, versus vehicle, P < 0.050): significant (P < 0.050) increase in the reaction time to heat
- threshold analgesic dose, hot-plate ([2]; intraplantar): 10 nmol/kg
- death [3]: absence of death
- toxicity (behaviour) after intraplantar injection [3]: no abnormal mice behavior
- IC50 [4]: 14 nM
- TTX-S peak current amplitude after wash-out [4]: −3.2 ± 0.7 nA
- TimeA (10% to 90% current increase, activation) [4]: 0.31 ± 0.06 ms and 0.27 ± 0.07 ms and 0.28 ± 0.11 ms
- TimeI (90% to 10% current decrease, inactivation) [4]: 6.93 ± 1.23 ms and 6.66 ± 1.42 ms and 6.59 ± 1.24 ms
- effect on activation or inactivation kinetics [4]: did not alter activation or inactivation kinetics
- fold more potent on TTX-S DRG currents than on mNav1.7 currents [4]: 11.8 fold
- fold more potent than HwTx-IV on mouse DRG TTX-S Na+ currents [4]: 9.5 fold
- nH (Hill number) [4]: 0.7
- reversibility of effect on TTX-S current [4]: reversible
- slope (kG) of conductance-voltage curves [4]: slight, but significant (P < 0.002), changes
- VI50% (voltage of 50% inactivation) ([4]; 13 nM, n = 4): −82 ± 2 mV
- VA50% (voltage of 50% maximal conductance) ([4]; 13 nM, n = 5): −32 ± 1 mV
- block of TTX-S Na+ currents ([4]; 130 nM): potently blocked
- time to stationary TTX-S peak current block ([4]; 130 nM, n = 8): 2.6 ± 0.6 min
- IC50 [5]: 2000 nM
- nH (Hill number) [5]: 0.8
- block of TTX-R Na+ currents ([5]; 130 nM): largely sparring
- animals with signs of hindlimb weakness (C57Bl6 mice): Seven out of 10
- death (C57Bl6 mice): none of the animals died
- distance travelled (C57Bl6 mice): unaffected
- duration of activity (C57Bl6 mice): unaffected
- number of movements, 60 min (C57Bl6 mice): accentuated 60 min later
- number of movements, first 10 min (C57Bl6 mice): reduction in the number of movements
- rearing events (C57Bl6 mice): reduced
- signs of suffering (C57Bl6 mice): no signs of suffering

Compound: NC1=N[C@H](O)[C@H]2[C@H]3O[C@]4(O)O[C@@H]([C@@H](O)[C@@]2(N1)[C@@H]4O)[C@]3(O)CO [TTX, tetrodotoxin, reference compound]
- Na+ current remaining (% of initial peak amplitude) [6]: 64.8% ± 4.2
- Na+ current remaining (% of initial peak amplitude) [4]: 9.5% ± 1.7

Compound: protoxin-II: protoxin-II, Nav1.7 selective to a large extent [reference compound]
- inhibition of Na+ current ([4]; 0.01 µM): 80%
- Nav1.7 selectivity (Nav1.7): Nav1.7 selective to a large extent

Compound: ω-conotoxin MVIIA
- fold better affinity than non-amidated ω-conotoxin MVIIA-Gly-COOH (N-type calcium channels): 10 fold

Compound: maurocalcin: a scorpion venom peptide (GDCLPHLKLCKENKDCCSKKCKRRGTNIEKRCR; UniProt P60254 1-33, looked up)
- effect of phosphorylation by protein kinase A (ryanodine receptor): converts the peptide from an allosteric activator to a ryanodine receptor blocker
